Data on one compound can be found in patent US20080027088A1, “Imidazole-Based Hmg-Coa Reductase Inhibitors” (Warner-Lambert Company, LLC, priority 2004, published 2008).

Assay type in all cases: in vivo
In assay [1] the test system is ApoE KO mice fed a Western diet. In words: Plasma and liver sphingomyelin by LC/MS, 4 weeks. As for the experimental part:
Animal experiments—Male C57BI/6J and ApoE KO mice on C57BI/6J background were obtained from the Jackson Laboratory (Bar Harbor, Me.) or Taconic (Germantown, N.Y.) (Plaque formation in ApoE KO mice is lipid-driven (A. S. Plump et al., Cell. 1992;71 (2):343-53)). Myriocin was mixed with Western diet containing 0.21% cholesterol and 21% fat. 8-12-week-old mice received 0.3 mg myriocin/kg/day for 12 weeks (Table 1). 10-12 week-old ApoE KO mice (n=8) were pre-fed a western diet for 2 weeks and mice received various concentrations of myriocin for 4 weeks in diet admix. Control groups consisted of ApoE KO mice fed normal chow or Western diet without myriocin, and normal chow-fed C57BI/6J mice. Body weight and chow feeding was measured every week to examine the food consumption. For the femoral artery cuff model, 8-10 week-old male ApoE KO mice were anethetized and the right femoral artery was dissected from its surroundings. […]
Analysis of Sphingolipids and Phospholipids by LC/MS and HPLC—Total lipids were extracted by the modified method of Bligh-Dyer extraction (E. G. Bligh and W. J. Dyer, Can. J. Med. Sci. 1959;37:911-917; and D. K. Perry, A. Bielawska and Y. A. Hannun, Methods Enzymol. 2000;312:22-31). A Micromass (Waters Corp., Milford, Mass.) Quattro Ultima tandem quadrupole mass spectrometer with a standard Z-spray™ ion source, set to electrospray positive ionization mode, with MassLynx™ version 3.5 operating software, was used for all quantitative determinations. […] The following ion transitions were used for quantification: sphingomyelin (704→184 m/z), sphinganine (302→284 m/z), ceramide (566→264 m/z) and psychosine (462→282 m/z) as an internal standard. […]
The liquid chromatography system was composed of twin Shimadzu (Columbia, Md.) LC-10ADvp HPLC pumps with a SCL-10Avp controller (flow rate 0.2 mL/minute), and a LEAP Technologies (Carrboro, N.C.) CTC PAL autosampler. For the quantitative method, the analytical column was a Phenomenex (Torrance, Calif.) Polar-RP (2.0×150 mm, 4 μm) with a MetaChem (Torrance, Calif.) MetaGuard Polaris C8 2.0 mm direct connect (5 μm) guard column. […]

For assay [2] the test system is unchanged. The experiment in a line: Lipid deposition in en face aorta, Oil Red O staining, 12 weeks. The text has this:
Vascular pathology—For quantitative analysis of atherosclerotic lesion coverage, sacrificed mice were perfused with saline and the aorta was isolated from the heart to the iliac bifurcation by severing minor branching arteries and dissecting the adventitia. After 24 hrs of fixation with 10% buffered formalin, aorta was opened longitudinally and pinned down on the black wax. Lipids were stained with Oil Red O and photographs were taken. The percentage of aorta stained with Oil Red O was determined by image analysis software, Image Pro Plus.
FIG. 10. Lipid deposition in aortae of Western-diet fed ApoE KO mice. ApoE KO mice were fed with Western diet in the presence or absence of myriocin for 12 weeks. Mice were sacrificed and fixed with 10% buffered formalin for 24 hours. The aorta from heart to the iliac bifurcation was dissected, opened along the ventral surface and pinned down on a black wax background. Accumulated lipids were visualized by Oil Red O staining. Areas of the atherosclerotic lesion were quantified by using Image Pro Plus and represented as percentage of lesion area to total aorta area. The values reported are mean±SEM (n=4, WD vs. WD+myriocin or normal chow, *P<0.01; Normal vs. WD+myriocin, #P<0.01). Bar represents 1 cm.

For assay [3] the test system is unchanged. In words: Atherosclerotic lesion and macrophage area in aortic root and brachiocephalic artery, 12 weeks. As for the experimental part:
For histological analysis, the mice were perfused and fixed in Zinc-Tris fixative. Paraffin embedded sections were stained with Masson's Trichrome. Intimal macrophages were immunohistochemically stained using MAC-2 antibody (clone M3/38 from Cedarlane Laboratories Limited) counterstained with Verhoeff elastic stain. T-lymphocytes were immunohistochemically stained with rat CD3 antibody (clone CD3-12, Serotec). Lesion thickness and area occupied by macrophages were determined using Image Pro Plus software.
FIGS. 11 & 12. Formation of atherosclerotic lesions in aortic root and brachiocephalic artery. ApoE KO mice fed with Western-diet in the absence or presence of myriocin, ApoE KO mice and C57BI/6J mice fed with normal chow were sacrificed and fixed with Zinc-Tris. The cross-section of brachiocephalic artery was stained by Masson's Trichrome and MAC-2 antibody counterstained with Verhoeff elastic stain. Atherosclerotic lesion (black bars) and macrophage size (gray bars) in brachiocephalic artery and in aortic root were quantified by using Image Pro Plus. The values reported are mean±SEM (n=5, *P<0.01, WD vs WD plus myriocin; #P<0.01, normal vs WD plus myriocin). Bar represents 100 μm.

In the case of `CCCCCCC(=O)CCCCCC/C=C/C[C@@H](O)[C@H](O)[C@@](N)(CO)C(=O)O` [myriocin], the “liver SM levels decreased, maximum” value in assay [1] (0.1 mg/kg/day) is listed as 46%. Moreover, in assay [1] (1 mg/kg/day), the “liver SM levels” value is on record as “comparable to the non-treated group” and the “plasma SM levels lowered (LC/MS)” value came to 70%. Moreover, in assay [2] (compared with normal chow-fed ApoE KO mice), the “atherosclerotic lesion decreased, en face aorta (Oil Red O)” value was 75%. Also, the “atherosclerotic lesion coverage reduced, en face aorta (Oil Red O)” value in assay [2] (vs Western diet-fed ApoE KO mice) worked out at 93%. In assay [3] (0.3 mg/kg), the “decrease in lesion area, brachiocephalic artery” value turned out to be 76%; the “decrease in macrophage area, brachiocephalic artery” value is 74%; the “lesion area decreased, aortic root” value is 44%; the “macrophage area decreased, aortic root” value was found to be 31%. Also, in assay [3] (myriocin-treated, Western diet-fed ApoE KO mice), the “necrotic core in lesions” value was “did not develop necrotic core”.
